# Measured values as given in publication PMC9415646, “Improving Aqueous Solubility and In Vitro Pharmacokinetic Properties of the 3-Nitroimidazo[1,2-a]pyridine Antileishmanial Pharmacophore” (Pharmaceuticals, 2022).
# Several values for one entry are separate records, joined by “and”; a condition that tells them apart may be missing. Equal values may be shown once.
# Columns and labels:
# [1] = system: L. infantum axenic amastigotes; assay: Antileishmanial activity on L. infantum axenic amastigotes (luciferase assay); format: cell-based; conditions: Leishmania infantum, 48 h, read-out: EC50 L. infantum Axenic Ama.
# Protocol: L. infantum promastigotes were harvested in logarithmic phase of growth by centrifugation at 900× g for 10 min. The supernatant was removed carefully and was replaced by the same volume of RPMI 1640 complete medium at pH 5.4 and incubated for 24 h at 24 °C. The acidified promastigotes were then incubated for 24 h at 37 °C in a ventilated flask to transform them into axenic amastigotes. The amastigote stage was checked both by electron microscopy (short flagellum with small bulbous tip extending beyond a spherical cell body) and RT-PCR to confirm the overexpression of ATG8 and amastin genes in amastigotes, relative to promastigotes. The effects of the tested compounds on the growth of L. infantum axenic amastigotes were assessed as follows. L. infantum amastigotes were incubated at a density of 2 × 10^6 parasites/mL in sterile 96-well plates with various concentrations of compounds dissolved in DMSO (final concentration less than 0.5% v/v), in duplicate. Appropriate controls treated with DMSO, amphotericin B, miltefosine, fexinidazole and fexinidazole sulfone were added to each set of experiments. After a 48 h incubation period at 37 °C, each plate-well was then microscopically examined to detect any precipitate formation.
# • Luciferase activity and determination of EC50 were performed as above.
# [2] = Redox potential of the nitro group by cyclic voltammetry; format: physicochemical; conditions: cyclic voltammetry in DMSO, corrected versus NHE
# Protocol: Voltammetric measurements were carried out with a potentiostat Autolab PGSTAT100 (ECO Chemie, Utrecht, The Netherlands) controlled by GPES 4.09 software (ECO Chemie, Utrecht, The Netherlands). Experiments were performed at room temperature in a homemade airtight three–electrode cell connected to a vacuum/argon line. The reference electrode consisted of a saturated calomel electrode (SCE) separated from the solution by a bridge compartment. The counter electrode was a platinum wire of 1 cm^2 apparent surface. The working electrode was a GC microdisk (1.0 mm in diameter–Bio-logic SAS). The supporting electrolyte (nBu4N)[PF6] (Fluka, 99% puriss electrochemical grade) and the solvent DMSO (Sigma-Aldrich puriss p.a. dried <0.02% water) were used as received and simply degassed under argon. The solutions used during electrochemical analyses were typically 10^−3 M in compound and 0.1 M in supporting electrolyte. Before each measurement, the solutions were degassed by bubbling Ar, and the working electrode was polished with a polishing machine (Presi P230, Eybens, France). Under the experimental conditions adopted in this work, the half-wave potential (E1/2) of the ferrocene Fc+/Fc couple in DMSO was E1/2 = 0.45 V vs. SCE. Experimental peak potentials were measured versus SCE and converted to NHE by adding 0.241 V.
# [3] = system: L. infantum promastigotes; assay: Antileishmanial activity against L. infantum promastigotes (luciferase assay); format: cell-based; conditions: Leishmania infantum, 72 h, read-out: EC50 L. infantum Pro.
# Protocol: L. infantum promastigotes (MHOM/MA/67/ITMAP-263, CNR Leishmania, Montpellier, France, expressing luciferase activity) were used in the following tests. The effects of the tested compounds on the growth of L. infantum promastigotes were assessed by Luciferase Assay. Briefly, promastigotes in log-phase in RPMI 1640 medium supplemented with 10% fetal calf serum (FCS), 2 mM L-glutamine and antibiotics (100U/mL penicillin, 100 µg/mL streptomycin and 50µg/mL geneticin), were incubated at an average density of 10^6 parasites/mL (100 µL/well) in sterile 96-well plates with various concentrations of compounds dissolved in DMSO (final concentration less than 0.5% v/v), in duplicate. Appropriate controls (100 µL/well) treated by DMSO and reference drugs (purchased for the majority from Sigma Aldrich) were added to each set of experiments. After a 72 h incubation period at 24 °C, each plate-well was then microscope-examined for detecting possible precipitate formation. To estimate the luciferase activities of promastigotes, 80 µL of each well are transferred in white 96-well plates, Steady Glow reagent (Promega) was added according to manufacter’s instructions, and plates were incubated for 2 min. The luminescence was measured in a FLUOstar Omega (BMG Labtech, Champigny-sur-Marne, France). […] EC50 were calculated by non-linear regression analysis processed on dose–response curves, using TableCurve 2D V5 software.
# [4] = Cytotoxicity on THP-1 cell line (MTT); format: cell-based; conditions: human, THP-1 cells, THP1 cell line
# Protocol: The plates were incubated for 72 h at 37 °C. Each well plate was then microscope-examined for detecting possible precipitate formation before the medium was aspirated from the wells. 100 µL of MTT solution (0.5 mg/mL in medium) were then added to each well. Cells were incubated for 2 h at 37 °C. […] Plates were shaken vigorously (300 rpm) for 10 min. The absorbance was measured at 570 nm using a BIO-TEK ELx808 Absorbance Microplate Reader. DMSO was used as blank and doxorubicin (purchased from Sigma Aldrich) as positive control. Cell viability was calculated as percentage of control (cells incubated with DMSO). […] (Palo Alto, CA, USA). CC50 values represent the mean value calculated from three separate experiments.
# [5] = system: L. donovani promastigotes; assay: Antileishmanial activity against L. donovani promastigotes (MTT assay); format: cell-based; conditions: Leishmania donovani; promastigotes, 72 h, MTT; read-out: EC50 L. donovani Pro.
# Protocol: The Leishmania species used in this study were L. donovani (MHOM/IN/00/DEVI) purchased from CNR Leishmania (Montpellier, France). Leishmania promastigote forms were grown in Schneider’s Drosophila medium (Life Technologies, Saint-Aubin, France) supplemented with 100 U/mL penicillin, 100 µg/mL streptomycin, 2 mM L-glutamine and 20% FCS (Life Technologies, Saint-Aubin, France) at 27 °C. The in vitro evaluation of the tested compound’s antileishmanial activity on promastigote forms was carried out by MTT assay according to the Mosmann protocol with some modifications. Briefly, promastigotes in log-phase were incubated at an average density of 10^6 parasites/mL in sterile 96-well plates with various concentrations of compound dissolved in DMSO (final concentration less than 0.5% v/v), in duplicate. Appropriate controls treated with DMSO, Miltefosine, Amphotericin B, Fexinidazole, and Fexinidazole sulfone (reference drugs purchased from Sigma-Aldrich, Saint-Louis, Missouri, USA) were added to each set of experiments. After a 72 h incubation period at 27 °C, parasitic metabolic activity was determined. Each plate-well was then microscope-analyzed to detect any precipitate formation. 20 µL of MTT (3-(4,5-dimethylthiazol-2-yl)-2,5-diphenyltetrazolium bromide) (Sigma-Aldrich, Saint-Louis, Missouri, USA) solution (5 mg/mL in PBS) were added to each well and incubated for 4 h at 27 °C. The enzyme reaction was then stopped by addition of 100 µL of 50% isopropanol–10% sodium dodecyl sulfate. Plates were shaken vigorously at 300 rpm for 10 min. The absorbance was measured at 570 nm in a BIO-TEK Elx808 (Biotek, Colmar, France) absorbance microplate reader. […] EC50 values were calculated by non-linear regression analysis processed dose-response curves, using TableCurve 2D V5.0 software (Systat Software Inc. (Palo Alto, CA, USA)). EC50 values represent the mean value calculated from at least three separate experiments.
# [6] = Cytotoxicity evaluation on HepG2 cell line (MTT); format: cell-based; conditions: human, HepG2 cells
# Protocol: The tested molecules’ cytotoxicity was assessed according to the method of Mosmann with slight modifications. […] Triplicate assays were performed for each sample. Each plate-well was then microscope-examined to detect possible precipitate formation before the medium was aspirated from the wells. 100 µL of MTT (3-(4,5-dimethyl-2-thiazolyl)-2,5-diphenyl-2H-tetrazolium bromide) solution (0.5 mg/mL in medium without FCS) were then added to each well. […] Plates were shaken vigorously (700 rpm) for 10 min. The absorbance was measured at 570 nm with 630 nm as reference wavelength using a BIO-TEK ELx808 Absorbance Microplate Reader. DMSO was used as blank and doxorubicin (purchased from Sigma Aldrich) as positive control. Cell viability was calculated as percentage of control (cells incubated without compound). […] (Palo Alto, CA, USA)). CC50 values represent the mean value calculated from three separate experiments.
Structure (SMILES),EC50 [1],E0 (redox potential of the nitro group) [2],EC50 [3],CC50 at 72 h [4],melting point,EC50 [5],CC50 at 72 h [6]
"O=[N+]([O-])c1c(CS(=O)(=O)C2CC2)nc2c(Br)cc(Cl)cn12 [Compound 2i, 8-Bromo-6-Chloro-2-[(cyclopropylsulfonyl]methyl)-3-Nitroimidazo[1,2-a]pyridine]",> 50 µM,−0.63 V,> 50 µM,> 50 µM,250 °C,> 25 µM,> 6.2 µM
"O=[N+]([O-])c1c(C[S+]([O-])c2ccccc2)nc2c(Br)cc(Cl)cn12 (centres unmarked) [Compound 5, 8-Bromo-6-Chloro-3-Nitro-2-[(phenylsulfinyl)methyl]imidazo[1,2-a]pyridine]",,,,,198 °C,,
"O=[N+]([O-])c1c(CS(=O)(=O)CCC(F)(F)F)nc2c(Br)cc(Cl)cn12 [Compound 2j, 8-Bromo-6-Chloro-3-Nitro-2-[(3,3,3-Trifluoropropylsulfonyl)methyl]imidazo[1,2-a]pyridine]",20.1 ± 5.6 µM,−0.60 V and −0.6 V,1.9 ± 0.4 µM,26 ± 1.2 µM,181 °C,14.4 ± 1.6 µM,42.9 ± 12.3 µM
"O=[N+]([O-])c1c(CS(=O)(=O)c2ccc(F)cc2)nc2c(Br)cc(Cl)cn12 [Compound 2e, 8-Bromo-6-Chloro-2-[(4-Fluorophenylsulfonyl)methyl]-3-Nitroimidazo[1,2-a]pyridine]",3.3 ± 0.1 µM,−0.64 V,> 100 µM,33.3 ± 1.4 µM,222 °C,2.8 ± 0.5 µM,> 7.8 µM
"O=[N+]([O-])c1c(CS(=O)(=O)c2ccc(C(F)(F)F)cc2)nc2c(Cl)cc(Cl)cn12 [Compound 1d, 6,8-Dichloro-3-Nitro-2-[(4-Trifluoromethylphenylsulfonyl)methyl]imidazo[1,2-a]pyridine]",2.2 ± 0.1 µM,−0.60 V and −0.6 V,> 100 µM,23.2 ± 1.9 µM,196 °C,4.1 ± 0.4 µM,> 15.6 µM
"CC(C)S(=O)(=O)Cc1nc2c(Sc3ccc(Cl)cc3)cc(Cl)cn2c1[N+](=O)[O-] [Compound 3g, 6-Chloro-8-[(4-Chlorophenyl)thio]-2-[(isopropylsulfonyl)methyl]-3-Nitroimidazo[1,2-a]pyridine]",3.2 ± 0.1 µM,−0.63 V,2.4 ± 0.6 µM,> 31.2 µM,208 °C,2.2 ± 0.3 µM,22.2 ± 5.5 µM
"O=[N+]([O-])c1c(CS(=O)(=O)c2ccc(F)cc2)nc2c(Cl)cc(Cl)cn12 [Compound 1c, 6,8-Dichloro-2-[(4-fluorophenylsulfonyl)methyl]-3-nitroimidazo[1,2-a]pyridine]",> 1.6 µM,−0.60 V and −0.6 V,> 100 µM,22.5 ± 1.1 µM,224 °C,5.8 ± 1.9 µM,> 7.8 µM
"O=[N+]([O-])c1c(CS(=O)(=O)c2ccc(Cl)cc2)nc2c(Br)cc(Cl)cn12 [Compound 2d, 8-Bromo-6-Chloro-2-[(4-Chlorophenylsulfonyl)methyl]-3-Nitroimidazo[1,2-a]pyridine]",2.1 ± 0.3 µM,−0.62 V,3.5 ± 0.4 µM,> 31.2 µM,222 °C,3 ± 0.4 µM,> 12.5 µM
"CC(C)S(=O)(=O)Cc1nc2c(Br)cc(Cl)cn2c1[N+](=O)[O-] [Compound 2h, 8-Bromo-6-Chloro-2-[(isopropylsulfonyl)methyl]-3-Nitroimidazo[1,2-a]pyridine]",> 50 µM,−0.65 V,61.2 ± 3.4 µM,> 100 µM,183 °C,> 25 µM,> 62.5 µM
"COc1cccc2c1C(=O)c1c(O)c3c(c(O)c1C2=O)C[C@@](O)(C(=O)CO)C[C@@H]3O[C@H]1C[C@H](N)[C@H](O)[C@H](C)O1 [Doxorubicin, reference compound]",,,,0.8 ± 0.1 µM,,,0.2 ± 0.02 µM
